From patent US20260062422A1 (Halda Therapeutics OpCo, Inc., priority 2022, published 2026) come the findings set out here.

Some results are limits rather than exact numbers.

For experiment [1], the system named is T-Rex 293 cell line SC3 cells having increased expression of androgen receptor protein due to exposure to doxycycline. Description: Cellular growth inhibition, T-Rex 293 SC3 cells with doxycycline (androgen receptor induced), CellTiter-Glo. It counts as cell-based. The conditions noted are these: 72 h, T-Rex 293 SC3 cells with 10 ng/mL doxycycline (increased androgen receptor expression). Summed up:
(§1)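 SC3 is a T-Rex 293 clone stably transfected with wild-type androgen receptor in pcDNA4/TO, inducible by 10 ng/mL doxycycline. Cells were grown in phenol red-free DMEM with 10% charcoal-dextran FBS, with or without doxycycline, dosed 24 h after seeding (0.5% DMSO) for 72 h. Viability was read by CellTiter-Glo 2.0 luminescence and GI50 obtained from four-parameter fits.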
In general terms: Cellular ATP, detected with luciferase, serves as a proxy for viable cell number.

Experiment [2] has as its system T-Rex 293 cell line SC3 cells lacking increased expression of androgen receptor protein. Description: Cellular growth inhibition, T-Rex 293 SC3 cells without doxycycline, CellTiter-Glo. It counts as cell-based. The conditions noted are these: 72 h, T-Rex 293 SC3 cells not exposed to doxycycline, CellTiter-Glo 2.0. Put shortly:
as §1

A further experiment concerns VCaP cells. Briefly: Cellular growth inhibition assay for VCaP cells, CellTiter-Glo. The class given is cell-based, human. The following applies: Homo sapiens, VCaP, 72 h, 72 hours treatment, CellTiter-Glo 2.0. Summed up:
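GI50 values come from four-parameter curve fits of luminescence data normalized to a zero baseline. Compound, in medium with 0.5% DMSO, was added one day after plating and left for 72 h before CellTiter-Glo 2.0 addition.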

In another experiment the test system is T47D cells. Description: Cellular growth inhibition assay for T47D cells, CellTiter-Glo. It counts as cell-based, human. The following applies: Homo sapiens, T47D, 72 h, 72 hours treatment, CellTiter-Glo 2.0 cell viability. Summed up:
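Cells are plated at 3000/well and allowed 24 h before treatment. Test compound in medium containing 0.5% DMSO is then added, with DMSO-only wells as negative control, and plates are incubated 72 h at 37 °C. ATP luminescence (CellTiter-Glo 2.0) is then fitted to four parameters to derive GI50.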

Usually GI50 stands for the concentration that inhibits growth by half. With `CC[C@@H]1N=C(c2ccc(N3CC(CC4CN(c5cnc(C(=O)N[C@H]6C(C)(C)[C@H](Oc7ccc(C#N)c(Cl)c7)C6(C)C)cn5)C4)C3)cc2)c2c(sc(C)c2C)-n2c(C)nnc21` [Compound I-607], the GI50 in experiment [1] was below 500 nM; in experiment [2], above 3000 nM; with VCaP cells it was above 3000 nM; with T47D cells, below 500 nM.

Turning to `CC[C@@H]1N=C(c2ccc(OC3CC4(C3)CC3(CCN(c5ncc(C(=O)N[C@H]6C(C)(C)[C@H](Oc7ccc(C#N)c(Cl)c7)C6(C)C)cn5)CC3)C4)cc2)c2c(sc(C)c2C)-n2c(C)nnc21` [Compound I-606], the concentration for 50% growth inhibition (GI50) in experiment [1] is below 500 nM; in experiment [2], above 3000 nM; in the experiment with VCaP cells, below 500 nM; in the experiment with T47D cells, above 3000 nM.

Consider `Cc1sc2c(c1C)C(c1ccc(N3CC(CC4CN(c5ccc(C(=O)N[C@H]6C(C)(C)[C@H](Oc7ccc(C#N)c(Cl)c7)C6(C)C)nc5)C4)C3)cc1)=N[C@@H](Cc1ncco1)c1nnc(C)n1-2` [Compound I-621], for which the GI50 (in experiment [1]; in experiment [2]; in the experiment with VCaP cells; with T47D cells) was below 500 nM each time.

Consider `Cc1sc2c(c1C)C(c1ccc(C(C)(C)N3CC4(CCCN(c5ncc(C(=O)N[C@H]6C(C)(C)[C@H](Oc7ccc(C#N)c(Cl)c7)C6(C)C)cn5)C4)C3)cc1)=N[C@@H](Cc1ncco1)c1nnc(C)n1-2` [Compound I-439], for which the GI50 is below 500 nM in experiment [1], above 3000 nM in experiment [2], above 3000 nM in the experiment with VCaP cells and above 3000 nM in the experiment on T47D cells.

As to `Cc1sc2c(c1C)C(c1ccc(CCCOC3CCN(c4ncc(C(=O)N[C@H]5C(C)(C)[C@H](Oc6ccc(C#N)c(Cl)c6)C5(C)C)cn4)CC3)cc1)=N[C@H](Cc1ccccn1)c1nnc(C)n1-2` [Compound I-213], the GI50 in experiment [1] was below 500 nM; in experiment [2], above 3000 nM; with VCaP cells it was below 500 nM; in the experiment with T47D cells, below 500 nM.

Take `Cc1sc2c(c1C)C(c1ccc(-c3scnc3OC3CCN(c4ncc(C(=O)N[C@H]5C(C)(C)[C@H](Oc6ccc(C#N)c(Cl)c6)C5(C)C)cn4)CC3)cc1)=N[C@@H](Cc1ncco1)c1nnc(C)n1-2` [Compound I-390]: the concentration for 50% growth inhibition (GI50) in experiment [1] was below 500 nM; in experiment [2], above 3000 nM; in the experiment on VCaP cells it was below 500 nM; in the experiment with T47D cells it was above 3000 nM.

As to `Cc1sc2c(c1C)C(c1ccc(O[C@H]3CC[C@]4(CCN(c5ncc(C(=O)N[C@H]6C(C)(C)[C@H](Oc7ccc(C#N)c(Cl)c7)C6(C)C)cn5)C4)C3)cc1)=N[C@@H](Cc1ncco1)c1nnc(C)n1-2` [Compound I-175], the GI50 in experiment [1] is below 500 nM; in experiment [2] it was below 500 nM; in the experiment on VCaP cells, below 500 nM; in the experiment with T47D cells, 500 to 1500 nM.

In the case of `Cc1sc2c(c1C)C(c1ccc(N(C)CC(=O)NCc3ncc(C(=O)N[C@H]4C(C)(C)[C@H](Oc5ccc(C#N)c(Cl)c5)C4(C)C)cn3)cc1)=N[C@@H](Cc1ncco1)c1nnc(C)n1-2` [Compound I-373], the GI50 (in experiment [1]; in experiment [2]; in the experiment on VCaP cells; in the experiment with T47D cells) was above 3000 nM throughout.

Turning to `Cc1sc2c(c1C)C(c1ccc(C[C@@H]3CC[C@]4(CCCN(c5ncc(C(=O)N[C@H]6C(C)(C)[C@H](Oc7ccc(C#N)c(Cl)c7)C6(C)C)cn5)C4)C3)cc1)=N[C@@H](Cc1ncco1)c1nnc(C)n1-2` [Compound I-165], the GI50 in experiment [1] was below 500 nM; in experiment [2], above 3000 nM; in the experiment with VCaP cells, 500 to 1500 nM; with T47D cells, 1500 to 3000 nM.

For `Cc1sc2c(c1C)C(c1ccc(OC3CC4(CCN(c5ncc(C(=O)N[C@H]6C(C)(C)[C@H](Oc7ccc(C#N)c(Cl)c7)C6(C)C)cn5)CC4)C3)cc1F)=N[C@@H](Cc1ncco1)c1nnc(C)n1-2` [Compound I-457, N-[3-(3-chloro-4-cyano-phenoxy)-2,2,4,4-tetramethyl-cyclobutyl]-2-[2-[3-fluoro-4-[(9S)-4,5,13-trimethyl-9-(oxazol-2-ylmethyl)-3-thia-1,8,11,12-tetrazatricyclo[8.3.0.02,6]trideca-2(6),4,7,10,12-pentaen-7-yl]phenoxy]-7-azaspiro [3.5]nonan-7-yl]pyrimidine-5-carboxamide], the GI50 (in experiment [1]; in experiment [2]; in the experiment with VCaP cells; in the experiment with T47D cells) was below 500 nM in each case.

Consider `Cc1sc2c(c1C)C(c1ccc(OC[C@H]3C[C@]4(CCCN(c5ncc(C(=O)N[C@H]6C(C)(C)[C@H](Oc7ccc(C#N)c(Cl)c7)C6(C)C)cn5)C4)C3)cc1)=N[C@@H](C)c1nnc(C)n1-2` [Compound I-350], for which the GI50 is below 500 nM in experiment [1], above 3000 nM in experiment [2], below 500 nM in the experiment on VCaP cells and above 3000 nM in the experiment with T47D cells.

As to `Cc1sc2c(c1C)C(c1ccc(N3CCC(CC4CCN(c5ncc(C(=O)N[C@H]6C(C)(C)[C@H](Oc7ccc(C#N)c(Cl)c7)C6(C)C)cn5)CC4)CC3)cc1)=N[C@H](Cc1ncco1)c1nnc(C)n1-2` [Compound I-211], the GI50 in experiment [1] was below 500 nM; in experiment [2], 500 to 1500 nM; in the experiment on VCaP cells it was below 500 nM; in the experiment on T47D cells it was below 500 nM.

For `Cc1sc2c(c1C)C(c1ccc(-c3ncc(C4CCN(c5ncc(C(=O)N[C@H]6C(C)(C)[C@H](Oc7ccc(C#N)c(Cl)c7)C6(C)C)cn5)CC4)s3)cc1)=N[C@@H](Cc1ncco1)c1nnc(C)n1-2` [Compound I-452], the GI50 (in experiment [1]; in experiment [2]; with VCaP cells; with T47D cells) was below 500 nM throughout.

As for `CC[C@@H]1N=C(c2ccc(C#CC3CC4(C3)CN(c3ncc(C(=O)N[C@H]5C(C)(C)[C@H](Oc6ccc(C#N)c(Cl)c6)C5(C)C)cn3)C4)cc2)c2c(sc(C)c2C)-n2c(C)nnc21` [Compound I-576], the GI50 in experiment [1] is below 500 nM; in experiment [2], 500 to 1500 nM; in the experiment with VCaP cells it was 500 to 1500 nM; with T47D cells, below 500 nM.

`Cc1sc2c(c1C)C(c1ccc([C@H]3C[C@@H]([C@H]4CCN(c5ncc(C(=O)N[C@H]6C(C)(C)[C@H](Oc7ccc(C#N)c(Cl)c7)C6(C)C)cn5)C4)C3)cc1)=N[C@H](Cc1ncco1)c1nnc(C)n1-2` [Compound I-417]: the GI50 (in experiment [1]; in experiment [2]; in the experiment on VCaP cells; with T47D cells) was below 500 nM in each case.

Take `Cc1sc2c(c1C)C(c1ccc(CCO[C@H]3CCCN(c4ncc(C(=O)N[C@H]5C(C)(C)[C@H](Oc6ccc(C#N)c(Cl)c6)C5(C)C)cn4)C3)cc1)=N[C@@H](C)c1nnc(C)n1-2` [Compound I-354]: the GI50 in experiment [1] was below 500 nM; in experiment [2], above 3000 nM; in the experiment on VCaP cells, below 500 nM; with T47D cells it was 1500 to 3000 nM.

In the case of `Cc1sc2c(c1C)C(c1ccc(CCC[C@H]3CCCN(c4ncc(C(=O)N[C@H]5C(C)(C)[C@H](Oc6ccc(C#N)c(Cl)c6)C5(C)C)cn4)C3)cc1)=N[C@@H](C)c1nnc(C)n1-2` [Compound I-366], the GI50 in experiment [1] was below 500 nM; in experiment [2], above 3000 nM; in the experiment on VCaP cells, below 500 nM; in the experiment with T47D cells, above 3000 nM.

Regarding `Cc1sc2c(c1C)C(c1ccc(OC[C@H]3C[C@@]4(CCCN(c5ncc(C(=O)N[C@H]6C(C)(C)[C@H](Oc7ccc(C#N)c(Cl)c7)C6(C)C)cn5)C4)C3)cc1)=N[C@@H](Cc1ncco1)c1nnc(C)n1-2` [Compound I-234], the GI50 was below 500 nM in experiment [1], 500 to 1500 nM in experiment [2], below 500 nM in the experiment on VCaP cells and below 500 nM in the experiment with T47D cells.

On to `Cc1sc2c(c1C)C(c1ccc([C@H]3CCN(C(=O)[C@H]4CCCN(c5ncc(C(=O)N[C@H]6C(C)(C)[C@H](Oc7ccc(C#N)c(Cl)c7)C6(C)C)cn5)C4)C3)cc1)=N[C@@H](Cc1ncco1)c1nnc(C)n1-2` [Compound I-387], for which the GI50 is below 500 nM in experiment [1], 500 to 1500 nM in experiment [2], below 500 nM in the experiment on VCaP cells and below 500 nM in the experiment with T47D cells.

For the compound `Cc1sc2c(c1C)C(c1ccc(CC(=O)N3CCN(c4ncc(C(=O)N[C@H]5C(C)(C)[C@H](Oc6ccc(C#N)c(Cl)c6)C5(C)C)cn4)CC3)cc1)=N[C@@H](Cc1ncco1)c1nnc(C)n1-2` [Compound I-363], the GI50 in experiment [1] was below 500 nM; in experiment [2], 500 to 1500 nM; with VCaP cells, below 500 nM; with T47D cells it was 500 to 1500 nM.

`Cc1sc2c(c1C)C(c1ccc(CCNC(=O)NCc3ncc(C(=O)N[C@H]4C(C)(C)[C@H](Oc5ccc(C#N)c(Cl)c5)C4(C)C)cn3)cc1)=N[C@H](Cc1ncco1)c1nnc(C)n1-2` [Compound I-330]: the GI50 in experiment [1] is below 500 nM; in experiment [2], above 3000 nM; with VCaP cells, 500 to 1500 nM; in the experiment on T47D cells, 1500 to 3000 nM.

With `Cc1sc2c(c1C)C(c1ccc(CNC(=O)CNC(=O)c3ncc(C(=O)N[C@H]4C(C)(C)[C@H](Oc5ccc(C#N)c(Cl)c5)C4(C)C)cn3)cc1)=N[C@@H](Cc1ncco1)c1nnc(C)n1-2` [Compound I-292], the GI50 in experiment [1] was above 3000 nM; in experiment [2], above 3000 nM; with VCaP cells, 500 to 1500 nM; with T47D cells it was above 3000 nM.

Regarding `Cc1sc2c(c1C)C(c1ccc(N3CCCC4(CCN(c5ncc(C(=O)N[C@H]6C(C)(C)[C@H](Oc7ccc(C#N)c(Cl)c7)C6(C)C)cn5)CC4)C3)cc1)=NC(Cc1ncco1)c1nnc(C)n1-2` (some centres unmarked) [Compound I-637], the GI50 in experiment [1] was below 500 nM; in experiment [2], above 3000 nM; in the experiment on VCaP cells it was below 500 nM; with T47D cells it was below 500 nM.
